Structures can show the parent of a compound that is named as a salt.
What was measured:
[1] = target: Adrenergic alpha2A (Homo sapiens, UniProt P08913); experiment: Adrenergic alpha2A binding
Protocol: (§1) Curves are evaluated using a 4-parameter logistic nonlinear equation to obtain the concentration of competitor causing 50% inhibition of radioligand binding (IC50). Equilibrium dissociation constants (Ki) are calculated according to the equation Ki=IC50/(1+L/Kd), where L equals the concentration of radioligand used in the experiment and Kd equals the equilibrium dissociation constant of the radioligand for the receptor, determined from standard saturation analysis or homologous competition experiments. Reported values for Ki, where n values are indicated, are shown as geometric mean±the standard error of the mean (SEM), with the number of replicate determinations indicated by n. Geometric means are calculated by the equation GeoMean=10̂(Average(log Ki 1+log Ki 2+ . . . log Ki n)/[…]).
(§2) Further, the compounds of the invention may be tested in binding assays and functional activity assays by well known methods for other physiologically important receptors such as, but not limited to, the hERG channel, other serotonin receptors (specifically 5-HT1B receptors, lack of agonist activity at 5-HT2B receptors, 5-HT2C, 5-HT5, 5-HT6, and 5-HT7 receptors), dopaminergic receptors (specifically D1, D2, and D3), H1 receptors, GABAA receptors, adrenergic receptors and monoamine transporters.

[2] = target: Norepinephrine Transport (Homo sapiens, UniProt P23975); experiment: Norepinephrine transporter binding
Sequence of Norepinephrine Transport (P23975 whole entry): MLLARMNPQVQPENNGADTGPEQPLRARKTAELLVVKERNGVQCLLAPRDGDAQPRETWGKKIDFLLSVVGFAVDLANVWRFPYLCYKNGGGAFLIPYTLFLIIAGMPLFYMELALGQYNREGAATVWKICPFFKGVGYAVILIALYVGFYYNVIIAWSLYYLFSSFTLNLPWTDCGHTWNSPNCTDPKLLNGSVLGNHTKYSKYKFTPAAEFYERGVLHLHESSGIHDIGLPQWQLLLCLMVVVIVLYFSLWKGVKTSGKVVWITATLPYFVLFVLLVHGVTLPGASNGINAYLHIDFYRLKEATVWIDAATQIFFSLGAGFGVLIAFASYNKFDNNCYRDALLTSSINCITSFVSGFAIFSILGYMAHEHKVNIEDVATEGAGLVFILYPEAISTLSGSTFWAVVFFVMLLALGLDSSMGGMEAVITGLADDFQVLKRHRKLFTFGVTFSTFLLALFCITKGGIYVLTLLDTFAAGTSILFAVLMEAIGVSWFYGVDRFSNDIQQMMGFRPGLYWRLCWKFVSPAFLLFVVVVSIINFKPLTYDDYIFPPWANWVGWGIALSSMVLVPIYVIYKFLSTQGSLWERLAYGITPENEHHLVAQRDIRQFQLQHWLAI
Protocol: as §1, §2

[3] = target: Dopamine D2 (Homo sapiens, UniProt P14416); experiment: Dopamine D2 binding
Sequence of Dopamine D2 (P14416 whole entry): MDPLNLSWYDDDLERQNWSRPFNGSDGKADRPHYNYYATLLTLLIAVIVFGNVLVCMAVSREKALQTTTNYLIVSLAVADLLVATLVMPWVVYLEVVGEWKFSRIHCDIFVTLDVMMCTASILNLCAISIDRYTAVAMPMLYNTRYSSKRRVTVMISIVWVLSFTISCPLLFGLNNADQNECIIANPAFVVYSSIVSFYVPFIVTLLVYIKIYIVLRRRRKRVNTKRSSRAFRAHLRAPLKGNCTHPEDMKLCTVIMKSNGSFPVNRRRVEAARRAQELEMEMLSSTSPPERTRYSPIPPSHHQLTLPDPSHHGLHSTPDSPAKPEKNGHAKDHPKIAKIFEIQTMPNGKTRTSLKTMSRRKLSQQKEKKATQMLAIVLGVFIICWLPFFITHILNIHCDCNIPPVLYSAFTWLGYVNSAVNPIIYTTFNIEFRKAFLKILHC
Protocol: as §1, §2

[4] = target: H1 receptors (Homo sapiens, UniProt P35367); experiment: H1 receptor binding
Protocol: as §1, §2

[5] = target: T1, recombinant 5-HT2C receptors (human) (Homo sapiens, UniProt P28335); experiment: 5-HT2C competition binding assay ([125I]-(±)DOI, SPA)
T1 construct: expressed in transfected cells
T1 sequence (P28335 33-458): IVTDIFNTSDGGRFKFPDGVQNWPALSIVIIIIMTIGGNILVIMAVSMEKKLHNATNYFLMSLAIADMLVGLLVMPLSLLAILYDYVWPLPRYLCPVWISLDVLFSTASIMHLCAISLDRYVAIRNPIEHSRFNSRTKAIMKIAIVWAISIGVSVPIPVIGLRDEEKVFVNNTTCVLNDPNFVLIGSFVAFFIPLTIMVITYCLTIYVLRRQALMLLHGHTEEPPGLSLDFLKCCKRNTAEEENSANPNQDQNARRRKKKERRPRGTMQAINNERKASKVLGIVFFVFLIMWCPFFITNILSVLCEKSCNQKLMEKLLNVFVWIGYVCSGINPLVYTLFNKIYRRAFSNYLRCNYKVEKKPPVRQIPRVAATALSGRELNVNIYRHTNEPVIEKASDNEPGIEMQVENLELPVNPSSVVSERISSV
Protocol: [^125I]-(±)DOI binding experiments are carried out in SPA 96-well format. Membranes used in this assay are prepared from AV-12 cells stably expressing recombinant 5-HT2C receptors (human). The incubation is initiated by the addition of a mixture of WGA PVT SPA beads (0.5 mg/well, Perkin Elmer (MA, USA), RPNQ0001) and 2.5 μg membranes to assay buffer (50 mM Tris-HCl, 10 mM MgCl2, 0.5 mM EDTA, 10 μM pargyline, 0.1% ascorbic acid, pH7.4) containing 0.2 nM [[^125I]-(±)DOI and varying concentrations of the test compound (10 point concentration response curves). Non-specific binding is determined in the presence of 20 μM 1-(1-naphthyl)piperazine. Samples are incubated for 4 hr. at room temperature (22° C.) and then read in a microplate scintillation counter.
(§3) Curves are evaluated using a 4-parameter logistic nonlinear equation to obtain the concentration of competitor causing 50% inhibition of radioligand binding (IC50). Equilibrium dissociation constants (Ki) are calculated according to the equation Ki=IC50/(1+L/Kd), where L equals the concentration of radioligand used in the experiment and Kd equals the equilibrium dissociation constant of the radioligand for the receptor, determined from standard saturation analysis or homologous competition experiments. […]

[6] = target: 5-HT2B (Homo sapiens, UniProt P41595); experiment: 5-HT2B binding (selectivity data)
Protocol: as §1, §2

[7] = target: Dopamine Transporter (Homo sapiens, UniProt Q01959); experiment: Dopamine transporter binding
Sequence of Dopamine Transporter (Q01959 whole entry): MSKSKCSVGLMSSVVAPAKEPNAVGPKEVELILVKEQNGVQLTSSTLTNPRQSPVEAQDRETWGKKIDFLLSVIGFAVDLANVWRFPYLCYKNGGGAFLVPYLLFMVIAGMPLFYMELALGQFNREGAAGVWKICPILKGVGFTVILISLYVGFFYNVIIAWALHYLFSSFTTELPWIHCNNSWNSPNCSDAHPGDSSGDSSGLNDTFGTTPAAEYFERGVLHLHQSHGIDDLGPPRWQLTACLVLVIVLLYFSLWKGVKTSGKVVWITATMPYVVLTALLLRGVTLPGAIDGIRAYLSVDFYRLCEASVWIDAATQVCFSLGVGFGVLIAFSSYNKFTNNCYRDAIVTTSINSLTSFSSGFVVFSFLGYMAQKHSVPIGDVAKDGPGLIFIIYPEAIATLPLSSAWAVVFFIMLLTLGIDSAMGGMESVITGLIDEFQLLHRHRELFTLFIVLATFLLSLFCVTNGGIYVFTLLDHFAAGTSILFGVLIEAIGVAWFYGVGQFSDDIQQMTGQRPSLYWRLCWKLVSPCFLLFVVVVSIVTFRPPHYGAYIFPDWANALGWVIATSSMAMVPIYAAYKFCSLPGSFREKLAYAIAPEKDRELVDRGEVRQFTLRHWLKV
Protocol: as §1, §2

[8] = target: Adrenergic alpha2C (Homo sapiens, UniProt P18825); experiment: Adrenergic alpha2C binding
Protocol: as §1, §2

[9] = target: recombinant human 5-HT2A receptor (Homo sapiens, UniProt P28223); experiment: 5-HT2A competition binding assay ([3H]-Ketanserin, SPA); design: expressed in transfected cells
Sequence of recombinant human 5-HT2A receptor (P28223 whole entry): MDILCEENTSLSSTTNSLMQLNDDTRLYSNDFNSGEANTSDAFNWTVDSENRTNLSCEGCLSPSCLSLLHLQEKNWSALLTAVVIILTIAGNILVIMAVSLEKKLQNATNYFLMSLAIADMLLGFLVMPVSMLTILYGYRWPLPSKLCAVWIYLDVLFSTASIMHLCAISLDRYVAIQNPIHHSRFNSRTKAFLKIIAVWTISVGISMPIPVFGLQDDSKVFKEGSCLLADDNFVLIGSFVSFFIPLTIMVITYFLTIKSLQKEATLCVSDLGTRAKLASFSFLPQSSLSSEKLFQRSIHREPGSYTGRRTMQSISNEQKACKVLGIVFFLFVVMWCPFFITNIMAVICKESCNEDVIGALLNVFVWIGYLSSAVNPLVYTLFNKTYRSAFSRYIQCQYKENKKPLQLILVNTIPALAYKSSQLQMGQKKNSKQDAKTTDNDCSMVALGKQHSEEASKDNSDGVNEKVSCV
Protocol: [^3H]-Ketanserin binding experiments are carried out in SPA 96-well format. Membranes used in this assay are prepared from AV-12 cells stably expressing recombinant 5-HT2A receptors (human). The incubation is initiated by the addition of a mixture of WGA YSi SPA beads (1 mg/well, Perkin Elmer (MA, USA), Product No. RPNQ0011) and 2 μg membranes to assay buffer (67 mM Tris, 0.5 mM EDTA; pH 7.6) containing 3.1 nM [^3H]-Ketanserin and varying concentrations of the test compound (10 point concentration response curves). Non-specific binding is determined in the presence of 20 μM 1-(1-naphthyl)piperazine. Samples are incubated for 4 hr. at room temperature (22° C.) and then read in a microplate scintillation counter.
as §3

[10] = target: Adrenergic alpha1A (Homo sapiens, UniProt P35348); experiment: Adrenergic alpha1A binding
Sequence of Adrenergic alpha1A (P35348 whole entry): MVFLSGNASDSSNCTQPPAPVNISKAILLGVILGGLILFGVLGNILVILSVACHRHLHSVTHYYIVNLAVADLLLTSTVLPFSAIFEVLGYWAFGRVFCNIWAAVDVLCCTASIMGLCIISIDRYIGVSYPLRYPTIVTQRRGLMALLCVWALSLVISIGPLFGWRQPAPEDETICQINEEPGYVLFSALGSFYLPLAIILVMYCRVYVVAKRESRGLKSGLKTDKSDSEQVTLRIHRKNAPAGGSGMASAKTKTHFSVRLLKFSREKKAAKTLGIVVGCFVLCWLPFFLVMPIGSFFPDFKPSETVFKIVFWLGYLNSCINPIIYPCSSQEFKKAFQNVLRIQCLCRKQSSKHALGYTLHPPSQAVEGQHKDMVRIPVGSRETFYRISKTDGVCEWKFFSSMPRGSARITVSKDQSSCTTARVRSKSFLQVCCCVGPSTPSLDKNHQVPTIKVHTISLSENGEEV
Protocol: as §1, §2

[11] = target: Dopamine D3 (Homo sapiens, UniProt P35462); experiment: Dopamine D3 binding
Sequence of Dopamine D3 (P35462 whole entry): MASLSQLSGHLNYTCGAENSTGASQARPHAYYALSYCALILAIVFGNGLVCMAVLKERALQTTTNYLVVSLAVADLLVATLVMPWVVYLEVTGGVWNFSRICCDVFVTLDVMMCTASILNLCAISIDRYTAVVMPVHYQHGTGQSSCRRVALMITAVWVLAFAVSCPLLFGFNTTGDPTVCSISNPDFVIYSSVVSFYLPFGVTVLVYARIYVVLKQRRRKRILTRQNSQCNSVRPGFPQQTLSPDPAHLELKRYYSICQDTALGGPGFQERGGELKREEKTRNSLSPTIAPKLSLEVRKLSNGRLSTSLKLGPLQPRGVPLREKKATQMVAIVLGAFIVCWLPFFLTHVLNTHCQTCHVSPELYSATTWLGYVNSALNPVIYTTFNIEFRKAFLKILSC
Protocol: as §1, §2

[12] = target: Adrenergic alpha1B (Homo sapiens, UniProt P35368); experiment: Adrenergic alpha1B binding
Protocol: as §1, §2

[13] = target: Serotonin Transporter (Homo sapiens, UniProt P31645); experiment: Serotonin transporter binding
Sequence of Serotonin Transporter (P31645 whole entry): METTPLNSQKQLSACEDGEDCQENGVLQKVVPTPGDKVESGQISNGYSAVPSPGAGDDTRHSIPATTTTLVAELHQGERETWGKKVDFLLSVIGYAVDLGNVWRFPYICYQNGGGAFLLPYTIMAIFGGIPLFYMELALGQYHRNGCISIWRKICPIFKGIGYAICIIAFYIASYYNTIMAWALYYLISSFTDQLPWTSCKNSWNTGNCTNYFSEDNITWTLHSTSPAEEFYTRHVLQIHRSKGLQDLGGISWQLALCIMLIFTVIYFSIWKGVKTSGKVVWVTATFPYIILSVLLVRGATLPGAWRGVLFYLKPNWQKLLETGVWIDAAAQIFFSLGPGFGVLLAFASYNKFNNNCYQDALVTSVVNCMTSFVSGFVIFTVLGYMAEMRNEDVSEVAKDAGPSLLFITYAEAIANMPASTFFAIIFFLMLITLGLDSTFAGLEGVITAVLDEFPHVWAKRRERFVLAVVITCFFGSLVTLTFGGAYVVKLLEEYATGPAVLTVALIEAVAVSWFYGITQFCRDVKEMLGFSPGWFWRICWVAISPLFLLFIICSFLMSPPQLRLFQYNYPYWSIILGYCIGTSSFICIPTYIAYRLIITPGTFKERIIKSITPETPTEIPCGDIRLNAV
Protocol: as §1, §2

[14] = target: Dopamine D1 (Homo sapiens, UniProt P21728); experiment: Dopamine D1 binding
Sequence of Dopamine D1 (P21728 whole entry): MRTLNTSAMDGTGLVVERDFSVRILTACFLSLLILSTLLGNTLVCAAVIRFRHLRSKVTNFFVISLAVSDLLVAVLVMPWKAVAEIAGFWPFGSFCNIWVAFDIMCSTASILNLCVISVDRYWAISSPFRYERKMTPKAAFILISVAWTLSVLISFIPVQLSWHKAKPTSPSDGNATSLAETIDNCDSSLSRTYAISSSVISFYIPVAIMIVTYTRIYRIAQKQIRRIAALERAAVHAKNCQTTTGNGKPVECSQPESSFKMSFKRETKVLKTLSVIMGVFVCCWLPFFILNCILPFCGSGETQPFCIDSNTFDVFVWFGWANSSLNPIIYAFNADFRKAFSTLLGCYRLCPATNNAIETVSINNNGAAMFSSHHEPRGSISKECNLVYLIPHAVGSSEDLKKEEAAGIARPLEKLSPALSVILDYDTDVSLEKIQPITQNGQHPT
Protocol: as §1, §2

[15] = test system: native GABAA receptors; experiment: GABAA antagonism using native receptors in primary neuronal cultures (FLIPR calcium flux); assay type: cell-based; conditions: against 10 μM GABA, rat cortical embryonic neurons
Protocol: Activity of compounds on native GABAA receptors is evaluated by monitoring calcium fluxes using a 96 well format FLIPR® system (Fluorometric Imaging Plate Reader (FLIPR®, Molecular Devices). Briefly, cortical embryonic neurons are dissociated from E18 rat embryos and plated at optimum density into black-walled, transparent bottom poly-D-lysine coated 96-well FLIPR® plates. After loading the cells with a calcium sensitive dye (Fluo4-AM, Molecular Devices), the cells are bathed in a solution containing low chloride (chloride replaced by gluconate). Under these conditions activation of GABAA receptors causes an efflux of chloride ions (in the direction of the chemical gradient), which results in membrane depolarization and consequently activation of voltage gated calcium channels (VGCCs). Calcium influx through VGCCs is recorded and analysed offline using the FLIPR® system. For a pharmacological validation of the assay, concentration response curves (CRC) are recorded for the standard agonist (GABA) and standard antagonist (Gabazine). […]
The antagonist effects of compounds are quantified using 10-point dose response curves by comparing the peak fluorescent responses to the agonist GABA in the presence and absence of compound. […] Antagonist effects are calculated as a percent of the assay window. […]

Sequence of Adrenergic alpha2A (P08913 whole entry): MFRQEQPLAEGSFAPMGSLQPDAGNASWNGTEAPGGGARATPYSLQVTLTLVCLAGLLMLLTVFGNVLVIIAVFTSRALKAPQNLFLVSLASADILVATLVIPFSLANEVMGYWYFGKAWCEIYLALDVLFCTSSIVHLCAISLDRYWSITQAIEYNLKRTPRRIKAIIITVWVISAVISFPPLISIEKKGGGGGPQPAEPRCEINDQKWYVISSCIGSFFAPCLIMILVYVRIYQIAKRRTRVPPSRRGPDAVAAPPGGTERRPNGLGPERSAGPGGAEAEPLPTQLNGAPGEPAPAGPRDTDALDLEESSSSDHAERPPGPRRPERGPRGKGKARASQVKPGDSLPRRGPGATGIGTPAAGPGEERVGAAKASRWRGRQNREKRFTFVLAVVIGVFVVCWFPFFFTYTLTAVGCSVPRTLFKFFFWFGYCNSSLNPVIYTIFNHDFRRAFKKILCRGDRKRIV

With Cc1ccc2c(c1)Oc1sc(SC(C)C)cc1C(N1CCN(CC(C)(C)C(=O)O)CC1)=N2 [Example 2, 3-[4-(2-Isopropylsulfanyl-8-methyl-thieno[2,3-b][1,5]benzoxazepin-4-yl)piperazin-1-yl]-2,2-dimethyl-propanoic acid dihydrochloric acid salt] the Ki [1] was greater than 8.82 µM, the Ki [2] was greater than 0.691 µM and the Ki [3] was greater than 3.67 µM. For the same compound, the Ki [4] was 0.893 µM, the Ki [5] was 0.772 µM and the Ki [6] was 0.767 µM. The Ki [7] was greater than 0.875 µM, the Ki [8] was greater than 6.75 µM and the Ki [9] was 0.0062 µM. For the same compound, the Ki [10] was greater than 13.4 µM, the Ki [11] was greater than 5.88 µM and the Ki [12] was 10.4 µM. The Ki [13] was greater than 0.651 µM, the Ki [14] was 3.76 µM and the IC50 [15] was 41 µM.

From US20150322083A1, “(THIENO[2,3-b][1,5]BENZOXAZEPIN-4-YL)PIPERAZIN-1-YL COMPOUNDS AS SELECTIVE 5-HT2A INVERSE AGONISTS” (Eli Lilly and Company, priority 2014, published 2015)
